Reference: ChEMBL document CHEMBL4507275, “Data for DCP probe BI-2545” (2021)

Tests used:
Details in all cases: Compound concentration 1000.0 nM
[1] = target: Activin receptor type-1 (Homo sapiens) (UniProt Q04771)
[2] = target: Activin receptor type-2B (Homo sapiens) (UniProt Q13705)
[3] = target: Dual specificity testis-specific protein kinase 1 (Homo sapiens) (UniProt Q15569)
[4] = target: Serine/threonine-protein kinase ULK1 (Homo sapiens) (UniProt O75385)
[5] = target: Serine/threonine-protein kinase 3 (Homo sapiens) (UniProt Q13188)
[6] = test system: Serine/threonine-protein kinase B-raf (Homo sapiens), P15056 [V600E]
[7] = target: Interleukin-1 receptor-associated kinase 4 (Homo sapiens) (UniProt Q9NWZ3)
[8] = target: Cyclin-dependent kinase 11B (Homo sapiens) (UniProt P21127)
[9] = target: Serine/threonine-protein kinase RIO2 (Homo sapiens) (UniProt Q9BVS4)
[10] = test system: Mast/stem cell growth factor receptor Kit (Homo sapiens), P10721 [L576P]
[11] = target: Serine/threonine-protein kinase PLK4 (Homo sapiens) (UniProt O00444)
[12] = test system: Receptor-type tyrosine-protein kinase FLT3 (Homo sapiens), P36888 [R834Q]
[13] = target: Activin receptor type-1-like (Homo sapiens) (UniProt P37023)
[14] = target: Cyclin-G-associated kinase (Homo sapiens) (UniProt O14976)
[15] = target: Fibroblast growth factor receptor 3 (Homo sapiens) (UniProt P22607)
[16] = target: Ribosomal protein S6 kinase alpha-3 (Homo sapiens) (UniProt P51812)
[17] = target: Dual specificity mitogen-activated protein kinase kinase 6 (Homo sapiens) (UniProt P52564)
[18] = target: Mitotic checkpoint serine/threonine-protein kinase BUB1 (Homo sapiens) (UniProt O43683)
[19] = target: TGF-beta receptor type-1 (Homo sapiens) (UniProt P36897)
[20] = target: Phosphatidylinositol 3-kinase C2 domain-containing subunit gamma (Homo sapiens) (UniProt O75747)
[21] = target: Serine/threonine-protein kinase PAK 3 (Homo sapiens) (UniProt O75914)
[22] = target: Casein kinase II subunit alpha (Homo sapiens) (UniProt P68400)
[23] = target: Serine/threonine-protein kinase DCLK1 (Homo sapiens) (UniProt O15075)
[24] = target: Serine/threonine-protein kinase MAK (Homo sapiens) (UniProt P20794)
[25] = test system: Tyrosine-protein kinase ABL1 (Homo sapiens), P00519 [T315I]
[26] = target: Tyrosine-protein kinase Lyn (Homo sapiens) (UniProt P07948)
[27] = target: Calcium/calmodulin-dependent protein kinase type 1B (Homo sapiens) (UniProt Q6P2M8)
[28] = target: Serine/threonine-protein kinase Nek10 (Homo sapiens) (UniProt Q6ZWH5)
[29] = target: SNF-related serine/threonine-protein kinase (Homo sapiens) (UniProt Q9NRH2)
[30] = target: RAC-alpha serine/threonine-protein kinase (Homo sapiens) (UniProt P31749)
[31] = target: Megakaryocyte-associated tyrosine-protein kinase (Homo sapiens) (UniProt P42679)
[32] = test system: Tyrosine-protein kinase ABL1 (Homo sapiens), P00519 [E255K]
[33] = target: Bone morphogenetic protein receptor type-1A (Homo sapiens) (UniProt P36894)
[34] = target: Tyrosine-protein kinase JAK1 (Homo sapiens) (UniProt P23458)
[35] = target: Serine/threonine-protein kinase D1 (Homo sapiens) (UniProt Q15139)
[36] = target: Serine/threonine-protein kinase Nek5 (Homo sapiens) (UniProt Q6P3R8)
[37] = target: Cyclin-dependent kinase 16 (Homo sapiens) (UniProt Q00536)
[38] = test system: Phosphatidylinositol 4,5-bisphosphate 3-kinase catalytic subunit alpha isoform (Homo sapiens), P42336 [E542K]
[39] = target: Ribosomal protein S6 kinase alpha-4 (Homo sapiens) (UniProt O75676)
[40] = target: Insulin receptor (Homo sapiens) (UniProt P06213)
[41] = test system: Tyrosine-protein kinase ABL1 (Homo sapiens), P00519 [H396P]
[42] = target: Mitogen-activated protein kinase kinase kinase 5 (Homo sapiens) (UniProt Q99683)
[43] = target: Myosin light chain kinase (Homo sapiens) (UniProt Q32MK0)
[44] = target: cAMP-dependent protein kinase catalytic subunit beta (Homo sapiens) (UniProt P22694)
[45] = target: Cyclin-dependent kinase 2 homolog (Plasmodium falciparum (isolate 3D7)) (UniProt P61075)

Insulin receptor (Homo sapiens), sequence (P06213 28-758 limits assumed): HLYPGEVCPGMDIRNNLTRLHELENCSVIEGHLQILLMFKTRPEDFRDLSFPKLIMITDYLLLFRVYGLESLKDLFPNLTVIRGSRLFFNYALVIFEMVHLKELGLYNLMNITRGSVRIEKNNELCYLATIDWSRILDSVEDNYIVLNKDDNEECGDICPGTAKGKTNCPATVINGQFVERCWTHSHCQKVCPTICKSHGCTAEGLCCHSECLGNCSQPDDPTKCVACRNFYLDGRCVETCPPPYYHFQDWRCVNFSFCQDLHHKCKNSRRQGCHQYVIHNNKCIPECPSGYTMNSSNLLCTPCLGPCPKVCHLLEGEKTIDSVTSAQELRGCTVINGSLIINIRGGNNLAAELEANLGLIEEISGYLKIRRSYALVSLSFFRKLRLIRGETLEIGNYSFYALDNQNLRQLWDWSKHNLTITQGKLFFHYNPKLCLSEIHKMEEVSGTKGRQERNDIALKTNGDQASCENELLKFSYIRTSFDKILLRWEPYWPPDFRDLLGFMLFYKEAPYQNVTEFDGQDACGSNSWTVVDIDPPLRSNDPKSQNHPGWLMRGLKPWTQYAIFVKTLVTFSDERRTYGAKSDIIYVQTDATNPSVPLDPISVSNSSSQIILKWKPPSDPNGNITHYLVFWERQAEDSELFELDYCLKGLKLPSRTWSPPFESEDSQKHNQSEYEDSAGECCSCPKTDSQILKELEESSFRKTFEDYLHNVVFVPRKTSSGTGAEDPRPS
Insulin receptor (Homo sapiens), sequence (P06213 763-1382 limits assumed): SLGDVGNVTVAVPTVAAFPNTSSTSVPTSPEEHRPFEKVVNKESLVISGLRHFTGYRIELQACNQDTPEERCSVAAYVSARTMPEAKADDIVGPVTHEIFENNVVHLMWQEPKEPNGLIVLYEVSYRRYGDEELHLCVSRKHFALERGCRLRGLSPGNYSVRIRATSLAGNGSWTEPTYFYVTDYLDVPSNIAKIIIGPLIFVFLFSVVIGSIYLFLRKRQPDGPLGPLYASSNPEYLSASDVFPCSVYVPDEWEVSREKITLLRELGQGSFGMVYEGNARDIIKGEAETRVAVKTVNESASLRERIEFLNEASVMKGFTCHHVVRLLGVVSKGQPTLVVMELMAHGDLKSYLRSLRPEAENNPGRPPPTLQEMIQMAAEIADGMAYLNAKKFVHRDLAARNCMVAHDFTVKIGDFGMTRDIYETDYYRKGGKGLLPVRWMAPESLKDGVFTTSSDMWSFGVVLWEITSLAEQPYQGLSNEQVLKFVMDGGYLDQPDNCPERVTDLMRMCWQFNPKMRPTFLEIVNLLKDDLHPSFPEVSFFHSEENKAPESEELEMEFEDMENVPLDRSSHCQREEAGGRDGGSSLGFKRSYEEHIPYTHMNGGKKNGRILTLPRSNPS
Serine/threonine-protein kinase DCLK1 (Homo sapiens), sequence (O15075 whole entry): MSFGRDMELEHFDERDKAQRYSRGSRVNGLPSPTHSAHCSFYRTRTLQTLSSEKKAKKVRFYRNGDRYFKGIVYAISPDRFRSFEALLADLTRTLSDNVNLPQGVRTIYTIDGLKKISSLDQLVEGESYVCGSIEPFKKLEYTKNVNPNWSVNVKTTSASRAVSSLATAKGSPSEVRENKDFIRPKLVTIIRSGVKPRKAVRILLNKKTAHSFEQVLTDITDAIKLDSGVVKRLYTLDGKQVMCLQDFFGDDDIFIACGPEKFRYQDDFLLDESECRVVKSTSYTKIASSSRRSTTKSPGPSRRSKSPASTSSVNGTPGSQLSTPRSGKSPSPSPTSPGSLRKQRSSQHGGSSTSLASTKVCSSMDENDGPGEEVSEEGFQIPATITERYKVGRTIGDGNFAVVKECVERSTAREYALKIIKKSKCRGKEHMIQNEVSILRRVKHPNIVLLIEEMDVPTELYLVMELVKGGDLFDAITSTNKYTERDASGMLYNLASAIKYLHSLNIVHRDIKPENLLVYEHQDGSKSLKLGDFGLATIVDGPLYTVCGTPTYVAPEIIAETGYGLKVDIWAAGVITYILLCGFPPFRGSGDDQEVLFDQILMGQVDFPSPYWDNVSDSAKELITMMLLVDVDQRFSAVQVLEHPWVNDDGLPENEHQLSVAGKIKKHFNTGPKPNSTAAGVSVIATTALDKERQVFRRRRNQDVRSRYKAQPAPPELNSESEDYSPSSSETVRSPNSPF
Serine/threonine-protein kinase 3 (Homo sapiens), sequence (Q13188 whole entry): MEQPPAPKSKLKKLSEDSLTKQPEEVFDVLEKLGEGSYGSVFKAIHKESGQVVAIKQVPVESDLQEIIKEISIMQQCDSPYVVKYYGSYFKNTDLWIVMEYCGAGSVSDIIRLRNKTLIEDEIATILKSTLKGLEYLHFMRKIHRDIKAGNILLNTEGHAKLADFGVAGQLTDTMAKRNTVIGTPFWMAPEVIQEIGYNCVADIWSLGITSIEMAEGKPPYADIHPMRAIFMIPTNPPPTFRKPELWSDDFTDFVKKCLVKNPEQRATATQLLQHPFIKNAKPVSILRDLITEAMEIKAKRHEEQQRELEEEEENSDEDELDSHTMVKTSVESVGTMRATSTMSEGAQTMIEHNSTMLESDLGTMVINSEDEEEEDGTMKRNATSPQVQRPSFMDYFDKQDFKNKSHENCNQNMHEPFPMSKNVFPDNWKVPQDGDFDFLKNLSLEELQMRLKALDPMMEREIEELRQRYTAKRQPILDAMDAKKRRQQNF
Mitotic checkpoint serine/threonine-protein kinase BUB1 (Homo sapiens), sequence (O43683 whole entry, looked up): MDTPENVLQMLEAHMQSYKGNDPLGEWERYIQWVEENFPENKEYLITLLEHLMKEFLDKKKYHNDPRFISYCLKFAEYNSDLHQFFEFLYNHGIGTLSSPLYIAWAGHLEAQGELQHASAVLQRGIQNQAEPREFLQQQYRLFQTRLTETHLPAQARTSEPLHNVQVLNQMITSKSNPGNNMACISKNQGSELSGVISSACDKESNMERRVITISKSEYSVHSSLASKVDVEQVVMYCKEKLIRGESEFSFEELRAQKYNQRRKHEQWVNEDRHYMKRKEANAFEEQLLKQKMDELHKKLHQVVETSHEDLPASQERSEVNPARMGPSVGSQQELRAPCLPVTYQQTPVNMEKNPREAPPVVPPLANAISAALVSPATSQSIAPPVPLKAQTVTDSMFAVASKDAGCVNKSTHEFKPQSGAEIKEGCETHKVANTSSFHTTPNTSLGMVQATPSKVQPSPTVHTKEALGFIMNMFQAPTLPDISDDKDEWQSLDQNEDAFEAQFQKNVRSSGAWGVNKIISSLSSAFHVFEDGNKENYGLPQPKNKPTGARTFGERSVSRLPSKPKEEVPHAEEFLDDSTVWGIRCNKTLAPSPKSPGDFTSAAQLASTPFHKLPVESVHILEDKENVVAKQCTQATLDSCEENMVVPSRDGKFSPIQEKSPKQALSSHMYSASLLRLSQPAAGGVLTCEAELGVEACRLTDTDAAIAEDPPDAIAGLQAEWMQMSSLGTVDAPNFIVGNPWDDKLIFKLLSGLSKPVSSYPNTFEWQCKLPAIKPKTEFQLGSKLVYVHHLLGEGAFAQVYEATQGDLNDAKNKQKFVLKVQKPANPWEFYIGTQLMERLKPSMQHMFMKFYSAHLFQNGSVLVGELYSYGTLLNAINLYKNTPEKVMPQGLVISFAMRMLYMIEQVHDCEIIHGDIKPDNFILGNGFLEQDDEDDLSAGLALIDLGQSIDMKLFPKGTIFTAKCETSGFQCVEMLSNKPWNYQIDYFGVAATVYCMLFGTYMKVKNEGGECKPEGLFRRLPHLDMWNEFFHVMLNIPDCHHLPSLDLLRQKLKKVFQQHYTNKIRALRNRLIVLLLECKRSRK
Serine/threonine-protein kinase PLK4 (Homo sapiens), sequence (O00444 whole entry): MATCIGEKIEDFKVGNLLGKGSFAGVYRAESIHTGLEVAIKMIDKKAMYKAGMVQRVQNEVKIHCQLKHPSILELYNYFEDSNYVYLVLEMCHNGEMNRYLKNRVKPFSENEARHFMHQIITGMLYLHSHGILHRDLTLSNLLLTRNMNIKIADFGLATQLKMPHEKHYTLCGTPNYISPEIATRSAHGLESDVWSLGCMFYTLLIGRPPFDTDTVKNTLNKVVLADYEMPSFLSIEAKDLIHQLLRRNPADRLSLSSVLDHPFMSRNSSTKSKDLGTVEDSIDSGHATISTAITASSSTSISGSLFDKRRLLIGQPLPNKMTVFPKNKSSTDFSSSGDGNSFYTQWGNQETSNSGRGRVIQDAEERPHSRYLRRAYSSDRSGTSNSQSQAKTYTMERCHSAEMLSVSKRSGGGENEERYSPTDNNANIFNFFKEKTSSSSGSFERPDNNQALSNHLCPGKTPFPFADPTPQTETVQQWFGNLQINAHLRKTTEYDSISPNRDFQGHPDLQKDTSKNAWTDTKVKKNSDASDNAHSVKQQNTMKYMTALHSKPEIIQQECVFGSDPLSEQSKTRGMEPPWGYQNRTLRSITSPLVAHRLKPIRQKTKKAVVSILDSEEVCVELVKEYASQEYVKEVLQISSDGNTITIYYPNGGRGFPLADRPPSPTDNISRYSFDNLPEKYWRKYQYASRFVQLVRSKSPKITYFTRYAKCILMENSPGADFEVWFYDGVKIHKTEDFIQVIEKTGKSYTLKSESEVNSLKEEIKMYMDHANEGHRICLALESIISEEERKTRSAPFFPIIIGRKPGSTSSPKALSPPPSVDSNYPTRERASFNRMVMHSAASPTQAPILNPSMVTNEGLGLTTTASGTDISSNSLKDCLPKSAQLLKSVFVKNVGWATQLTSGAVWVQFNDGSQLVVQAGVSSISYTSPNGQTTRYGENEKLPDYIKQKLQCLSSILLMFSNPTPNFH
Casein kinase II subunit alpha (Homo sapiens), sequence (P68400 whole entry, looked up): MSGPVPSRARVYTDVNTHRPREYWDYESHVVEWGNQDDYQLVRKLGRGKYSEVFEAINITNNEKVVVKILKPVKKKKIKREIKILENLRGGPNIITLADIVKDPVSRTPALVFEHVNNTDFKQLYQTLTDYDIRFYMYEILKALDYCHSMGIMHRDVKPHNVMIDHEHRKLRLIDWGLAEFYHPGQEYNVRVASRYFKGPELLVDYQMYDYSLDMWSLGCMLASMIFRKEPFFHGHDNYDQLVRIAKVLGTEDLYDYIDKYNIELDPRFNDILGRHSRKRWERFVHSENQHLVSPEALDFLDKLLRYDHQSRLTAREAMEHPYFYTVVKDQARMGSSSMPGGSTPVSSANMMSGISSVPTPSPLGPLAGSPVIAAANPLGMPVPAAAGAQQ

O=C(NC[C@@H]1[C@H]2CN(C(=O)OCc3cc(C(F)(F)F)cc(C(F)(F)F)c3)C[C@@H]12)c1ccc2[nH]nnc2c1 [BI 2545]
residual activity [1]: 100%
residual activity [2]: 100%
residual activity [3]: 79%
residual activity [4]: 92%
residual activity [5]: 87%
residual activity [6]: 100%
residual activity [7]: 100%
residual activity [8]: 100%
residual activity [9]: 94%
residual activity [10]: 92%
residual activity [11]: 82%
residual activity [12]: 88%
residual activity [13]: 100%
residual activity [14]: 91%
residual activity [15]: 82%
residual activity [16]: 94%
residual activity [17]: 72%
residual activity [18]: 61%
residual activity [19]: 97%
residual activity [20]: 100%
residual activity [21]: 100%
residual activity [22]: 84%
residual activity [23]: 94%
residual activity [24]: 100%
residual activity [25]: 82%
residual activity [26]: 100%
residual activity [27]: 100%
residual activity [28]: 73%
residual activity [29]: 77%
residual activity [30]: 100%
residual activity [31]: 100%
residual activity [32]: 92%
residual activity [33]: 100%
residual activity [34]: 89%
residual activity [35]: 100%
residual activity [36]: 94%
residual activity [37]: 100%
residual activity [38]: 75%
residual activity [39]: 86%
residual activity [40]: 83%
residual activity [41]: 91%
residual activity [42]: 13%
residual activity [43]: 98%
residual activity [44]: 100%
residual activity [45]: 100%

Cc1nccc(COC(=O)N2C[C@@H]3[C@@H](CNC(=O)c4ccc5[nH]nnc5c4)[C@@H]3C2)n1 [BI 3017]
residual activity [1]: 95%
residual activity [2]: 91%
residual activity [3]: 98%
residual activity [4]: 93%
residual activity [5]: 97%
residual activity [6]: 100%
residual activity [7]: 87%
residual activity [8]: 100%
residual activity [9]: 97%
residual activity [10]: 89%
residual activity [11]: 83%
residual activity [12]: 85%
residual activity [13]: 100%
residual activity [14]: 100%
residual activity [15]: 93%
residual activity [16]: 100%
residual activity [17]: 100%
residual activity [18]: 90%
residual activity [19]: 100%
residual activity [20]: 99%
residual activity [21]: 75%
residual activity [22]: 81%
residual activity [23]: 90%
residual activity [24]: 98%
residual activity [25]: 90%
residual activity [26]: 100%
residual activity [27]: 83%
residual activity [28]: 92%
residual activity [29]: 98%
residual activity [30]: 100%
residual activity [31]: 94%
residual activity [32]: 89%
residual activity [33]: 85%
residual activity [34]: 92%
residual activity [35]: 100%
residual activity [36]: 87%
residual activity [37]: 78%
residual activity [38]: 86%
residual activity [39]: 90%
residual activity [40]: 84%
residual activity [41]: 85%
residual activity [42]: 95%
residual activity [43]: 97%
residual activity [44]: 98%
residual activity [45]: 85%
